Literature values, collected in patent US4446129A, “Method for treatment of arthrosis deformans with elastase” (Eisai Co., Ltd., priority 1982, dated 1984).

Test system: elastase
Conditions: cited from earlier work

For `N.N.O=S(=O)(O)O` [(NH4)2 SO4], the “inhibition of elastase activity” value is listed as “inhibited”.
For `O=S(=O)([O-])[O-].[Cu+2]` [CuSO4], the “inhibition of elastase activity” value is listed as “inhibited”.
In the case of `[Cl-].[K+]` [KCl], the “inhibition of elastase activity” value is given as “inhibited”.
For `[Cl-].[Na+]` [NaCl], the “inhibition of elastase activity” value is listed as “inhibited”.
